From patent US20250360099A2, “A significantly non-toxic novel Cobalt(III) Schiff base complex induces apoptosis via G2-M cell cycle arrest in human breast cancer cell line MCF-7 and cell cycle arrest of colon cancer cell lines HCT-116 and SW- 480 via G0-G1” (CHITTARANJAN NATIONAL CANCER INSTITUTE, priority 2023, published 2025) come the findings set out here.

SMILES strings stand for the structures. Where two headings read alike, the source gives them in different places.

Data set [1] concerns SW-480. In words: MTT study with OCT3 inhibitor, SW-480. Type of data set: cell-based, human. Conditions: at the respective doses of inhibitor.
In data set [2] the test system is HCT-116. In words: MTT study with OCT3 inhibitor, HCT-116. Format: cell-based, human. The conditions noted are these: at the respective doses of inhibitor.
The subject of another data set is HCT-116 cells. In words: TUNEL staining, fluorescence microscopy. Type of data set: cell-based, human. The conditions noted are these: 24 h.
Data set [3] has as its system SW-480. In words: CFSE cell proliferation, SW-480. Format: cell-based, human. Conditions: respective IC50 dose, 24 h.
In data set [4] the test system is HCT-116. The experiment in a line: Annexin V-FITC/PI-PE dual staining, HCT-116. The conditions noted are these: respective IC50 dose, 24 h. Format: cell-based, human.
Data set [5] concerns HCT-116. In words: Wound healing (scratch) assay, HCT-116. Format: cell-based, human. Conditions: IC50 dose, 12-48 h.
In data set [6] the test system is HCT-116. The experiment in a line: Cell cycle distribution (PI), HCT-116. The conditions noted are these: 24 h. Format: cell-based, human.
In data set [7] the test system is Human colon cancer cell line HCT-116. In words: XTT assay, cytotoxicity on HCT-116. Conditions: 24 h. Type of data set: cell-based. From the text: (§1) Colon cancer cell lines and culture condition: Human colon cancer cell lines HCT-116 and SW-480 were purchased from NCCS, Pune. The carcinoma cell line (HCT-116) is wild-type for TP53 and adenocarcinoma cell line (SW480) is a double-mutant for TP53 gene.
(In general: Tetrazolium dyes change colour on reduction, which living cells bring about.)

Data set [8] relates to HCT-116. The experiment in a line: CFSE cell proliferation, HCT-116. Format: cell-based, human. The conditions noted are these: respective IC50 dose, 24 h.
In data set [9] the test system is SW-480. The experiment in a line: Annexin V-FITC/PI-PE dual staining, SW-480. Format: cell-based, human. Conditions: respective IC50 dose, 24 h.
In data set [10] the test system is SW-480. The experiment in a line: Wound healing (scratch) assay, SW-480. The conditions noted are these: IC50 dose, 12-48 h. Format: cell-based, human.
Data set [11] deals with human breast cancer cell line MCF-7. In words: MTT assay, cytotoxicity on breast cancer cells.
Procedure: Breast cancer cell line and culture condition: Cells were cultured in a humidified air-jacked CO2 incubator (Thermo scientific, Heracellvios 160i). […] Human breast cancer cells lines MCF-7, were purchased from NCCS, Pune. […] The cells were cultured as monolayers in RPMI-1640 supplemented with 10% heat-inactivated fetal bovine serum (FBS), 1% penicillin-streptomycin, and 1% antibiotic-antimycotics and 1% non-essential amino acids at 37° C. in a fully humidified air-jacketed incubator of 5% CO2 and 95% air. All the experiments were performed from exponentially growing passage of 15 or less with 80% cell confluency and then sub-cultured to a fresh media to keep cells healthy and actively growing.
The MTT assay is a quantitative, sensitive, and reliable colorimetric assay that mainly measures cell viability and proliferation. […] The cells viability was estimated spectrophotometrically by measuring absorbance at 570 nm using an ELISA plate reader. To calculate the cell viability percentage, the average absorbance of each treatment group was acquired and normalized based on the untreated control. The half inhibitory concentration (IC50 value) was calculated by putting the experimental data with the dose-response model (Prism 6, Version 6.0b, GraphPad Software).
Data set [12] concerns MCF-7 cells. In words: FACS-based Annexin V-FITC/PI dual staining assay. Format: cell-based, human. Conditions: IC50 dose, 24 h. How it is done: FACS-based Annexin V-FITC/PI dual staining assay: MCF-7 cells were seeded in 6-well plate at 1×10^5 cells per well and treated with an IC50 dose of complex 1 and oxaliplatin for 24 h, after which they were harvested by trypsinization and processed into cell suspensions (10^6 cells were taken from each group). Cells were centrifuged at 800 g before being re-suspended in a dye mix that included 250 μL Annexin V-FITC binding buffer, 1 μL PI solution, and 3 μL Annexin V-FITC solution as per assay kit protocol. For 15 minutes, the cell suspension was kept in dark. The BD FACS Verse was used to detect the intensities of red and green fluorescence, and Flowjo software (version 10) was used to assess the apoptotic rates of treated cells. Ten thousand events were collected to determine the population percentage. All experiments were repeated three times, and the results were presented as mean±SD.

The subject of data set [13] is Human colon cancer cell line SW-480. The experiment in a line: XTT assay, cytotoxicity on SW-480. Conditions: 24 h. Format: cell-based.
Text: as §1

In data set [14] the test system is SW-480. The experiment in a line: Cell cycle distribution (PI), SW-480. Type of data set: cell-based, human. Conditions: 24 h.
For data set [15], the system named is MCF-7 cells. The experiment in a line: CFSE cell proliferation assay (FACS). Format: cell-based, human. The conditions noted are these: IC50 dose, 24 h. As for the experimental part:
(§2) Cell proliferation and cycle study using FACS: To detect cell proliferation, CFSE dye was used. At first, MCF-7 cells were stained with 5 μM of CFSE dye for 15 min at 37° C. followed by the addition of FBS containing RPMI 1640 medium to end the reaction. Then CFSE-stained cells were cultured with both oxaliplatin and complex 1 for 24 h in 35-mm plates. One set of stained untreated cells was seeded only in complete media without any compound. For inhibition of proliferation, cells were grown in a serum-free medium (starvation) for 24 h as a positive control. On the next day, the green fluorescence intensity of CFSE within each cell was measured by flow cytometry, and data were calculated using Flowjo software (version 10). For cell cycle study, MCF-7 cells were seeded at 1×10^5 cells per well in a 6-well plate, treated with an IC50 dose of complex 1 and oxaliplatin for 24 h, then digested by trypsinization and made into cell suspension (10^6 cells were harvested from each group) in 2% FBS containing 1×PBS, followed by fixation in 70% ethanol overnight at 4° C. After that cells were centrifuged at 850×g in a low-temperature centrifuge for 5 min. […] BD FACS flow cytometer was used to assess the difference in cell cycle phase distribution of nuclear DNA, which was then analyzed using Flowjo software (version 10). […]

For data set [16], the system named is MCF-7 cells. In words: Cell cycle study by flow cytometry after PI staining. The conditions noted are these: IC50 concentration, 24 h; untreated 8.88%. Format: cell-based, human. How it is done: as §2
Background: A flow cytometer gives signals particle by particle.

For `CCN1/C(=C/c2ccc3ccccc3[n+]2CC)C=Cc2ccccc21.[I-]` [Dycenium-22], in the data set on SW-480 [1], the “toxicity of the inhibitor itself, SW-480” value is recorded as “non-toxic”. Also, the “toxicity of the inhibitor itself, HCT-116” value in the data set with HCT-116 [2] is given as “non-toxic”.

Broadly, the IC50 is the concentration that inhibits the measured activity by half. Regarding `O=C1[O][Pt]2([NH][C@@H]3CCCC[C@H]3[NH]2)[O]C1=O` [oxaliplatin, reference compound], in the data set on HCT-116 cells, the “TUNEL-positive cells vs untreated control” value is “increased number of TUNEL-positive cells”. The “cell proliferation, SW-480” value in the data set on SW-480 [3] is given as “suppressed the cell proliferation”. In addition, the “number of apoptotic cells vs untreated, HCT-116” value with HCT-116 [4] is listed as “elevated the number of apoptotic cells”. Further, the “migration of cells vs untreated, HCT-116” value in the data set with HCT-116 [5] is reported as “reduced the migration of cells”. In addition, the “cell cycle distribution, HCT-116” value in the data set on HCT-116 [6] is “cell cycle arrest at G0-G1 phase”. The IC50 in data set [7] was determined as 16.7 ± 1.78 µM; in data set [11] (read-out: IC50, cytotoxicity on MCF-7 cells, 24 h, mean±SD), 31.4 ± 0.69 µM; in data set [11] (read-out: IC50, cytotoxicity on MCF-7 cells, 48 h, mean±SD) it was 15.1 ± 1.81 µM; in [13] it was 7.87 ± 1.54 µM. Also, in the data set on HCT-116 [8], the “cell proliferation, HCT-116” value was “suppressed the cell proliferation”. Besides, the “number of apoptotic cells vs untreated, SW-480” value in the data set on SW-480 [9] was “elevated the number of apoptotic cells”. For the same compound, in the data set with SW-480 [10], the “migration of cells vs untreated, SW-480” value is given as “reduced the migration of cells”. Also, in the data set with MCF-7 cells [12] (untreated 2.87%), the “late apoptotic (Annexin V+/PI+) population” value is recorded as 23.9%. Further, the “early apoptotic population (Annexin V+/PI−)” value with MCF-7 cells [12] (untreated 4.96%) was 9.58%. The “cell cycle distribution, SW-480” value with SW-480 [14] is listed as “cell cycle arrest at G0-G1 phase”. Further, in the data set with MCF-7 cells [15], the “CFSE staining intensity vs untreated controls” value is on record as “significantly higher”. Besides, the “population of cells in the G2-M phase” value with MCF-7 cells [16] was found to be 21.3%.
